Consider 28 molecules from patent publication US11613525B2 (CTXT PTY LIMITED, priority 2018, dated 2023).

Each structure is given as a SMILES string. pEC50: −log10 of the molar value. Read-outs that look alike come from different tables or passages of the source.

The target of test [1] is T1, huSTING (WT) (Homo sapiens (Human), UniProt Q86WV6, H232R). In words: THP-1 reporter cell line assay, THP-1-Dual KI-hSTING-R232 cells. As to conditions: read-out: Cellular EC50 huSTING (WT). Type of test: cell-based.
Target sequence in this assay (Q86WV6 whole entry H232R): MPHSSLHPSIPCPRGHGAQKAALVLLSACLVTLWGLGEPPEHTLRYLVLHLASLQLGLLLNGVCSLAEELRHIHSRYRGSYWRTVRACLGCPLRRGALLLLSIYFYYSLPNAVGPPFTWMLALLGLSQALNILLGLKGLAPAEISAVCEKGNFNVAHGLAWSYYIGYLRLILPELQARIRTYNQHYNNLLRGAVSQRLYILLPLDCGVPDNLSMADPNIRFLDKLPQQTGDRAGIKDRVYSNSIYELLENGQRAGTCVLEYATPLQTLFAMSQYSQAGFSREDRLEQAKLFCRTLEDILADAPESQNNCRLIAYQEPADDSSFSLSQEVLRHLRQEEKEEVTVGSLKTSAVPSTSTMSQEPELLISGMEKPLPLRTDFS
Test [2] addresses T1, huSTING (WT). The test is described as follows: Differential scanning fluorimetry (DSF), huSTING (WT). Type of test: binding. As to conditions: compound 100 μM; protein concentration 2 μM. The procedure:
(§1) DSF monitors thermal unfolding of protein in the presence of a fluorescent dye and is typically performed using a real-time PCR instrument. The temperature at which a protein unfolds is measured by an increase in the fluorescence of a dye with affinity for hydrophobic parts of the protein that are gradually exposed during unfolding. The fluorescence of the dye is quenched in aqueous environments, but when the dye associates with hydrophobic sites on the unfolded protein, its fluorescence increases. The fluorescence intensity is plotted as a function of the temperature, generating a sigmoidal curve that can be described by a two-state transition. The inflection point of the transition curve (Tm) is calculated using simple equations such as that of Boltzman.
(§2) Sealed plates were then placed into a Bio-Rad CFX96/C1000 thermocycler and FRET scanning mode (λ^excitation of 490 nm and reads at λ^emission of 570 nm) was used to measure fluorescence intensity. […] The melting point (Tm) obtained for STING protein alone was subtracted from Tm obtained for protein incubated with ligand to generate ΔTm values listed in the table below.
(§3) These additional compounds were tested as described above, however the protein concentration was 2 μM.
Target sequence in this assay (Q86WV6 other isoform, or with tags, fused parts or gaps, stated change not applied): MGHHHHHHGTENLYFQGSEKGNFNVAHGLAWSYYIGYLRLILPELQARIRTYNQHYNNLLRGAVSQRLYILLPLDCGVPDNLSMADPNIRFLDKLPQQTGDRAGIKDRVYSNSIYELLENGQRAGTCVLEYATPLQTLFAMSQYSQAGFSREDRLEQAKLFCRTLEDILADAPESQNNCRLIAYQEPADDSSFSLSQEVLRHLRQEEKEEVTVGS
On the technique in general: DSF heats the sample and reads unfolding from a dye or from intrinsic fluorescence.

The next test addresses huSTING (HAQ) (Homo sapiens (Human), UniProt Q86WV6, G230A/H232R/R293Q/R71H). In words: THP-1 reporter cell line assay, THP-1 STING Lucia ISG cells. Type of test: cell-based. As to conditions: THP-1 STING Lucia ISG cells, read-out: Cellular EC50 huSTING (HAQ).
Another test has as its target human STING (HAQ) (Homo sapiens, UniProt Q86WV6, G230A/H232R/R293Q). The test is described as follows: biochemical. The class given is binding. As to conditions: for ΔTm at 100 µM: read-out: DSF huSTING (HAQ) ΔTm (° C.). On the procedure:
as §1, §2, §3

[3] abbreviates: modified method, top concentration 40 μM, pin tool, EnVision.

Sequence of human STING (HAQ) (Q86WV6 whole entry G230A/H232R/R293Q, looked up): as the sequence (Q86WV6 whole entry H232R) above, with G230A, R293Q counted along it
Sequence of huSTING (HAQ) (Q86WV6 whole entry R71H/G230A/H232R/R293Q): as the sequence (Q86WV6 whole entry H232R) above, with R71H, G230A, R293Q counted along it

Consider `COCCCOC(=O)c1sc2cccc(Cl)c2c1COc1c(F)cc(C(N)=O)cc1F` [Example 162, 3-Methoxypropyl 3-((4-carbamoyl-2,6-difluorophenoxy)methyl)-4-chlorobenzo[b]thiophene-2-carboxylate], for which the results for the negative logarithm of the EC50 (pEC50) on huSTING (WT) [1] and on huSTING (HAQ) (setting [3]) were 6.52 and 7.39, respectively. Moreover, the “DSF huSTING (WT) ΔTm (° C.)” value at huSTING (WT) [2] was −1.01 °C.

`CC(=O)NCCOC(=O)c1sc2cccc(Cl)c2c1COc1c(F)cc(C(N)=O)cc1F` [Example 159, 2-Acetamidoethyl 3-((4-carbamoyl-2,6-difluorophenoxy)methyl)-4-chlorobenzo[b]thiophene-2-carboxylate]: the values for the negative logarithm of the EC50 (pEC50) on huSTING (WT) [1] and at huSTING (HAQ) (setting [3]) were 6.49 and 7.36, respectively. The “DSF huSTING (WT) ΔTm (° C.)” value at huSTING (WT) [2] is −1.02 °C.

Turning to `CC(C)OC(=O)c1sc2cccc(F)c2c1COc1ccc(C(N)=O)cc1` [Example 4, Isopropyl 3-((4-carbamoylphenoxy)methyl)-4-fluorobenzo[b]thiophene-2-carboxylate], the negative logarithm of the EC50 (pEC50) at huSTING (WT) [1] is < 4.30; at huSTING (HAQ) (24 h, top concentration 50 μM) it was 5.59. The shift in melting temperature (ΔTm) at 100 µM on human STING (HAQ) stood at 0.13 °C.

Consider `NC(=O)c1ccc(OCc2c(C(=O)O)sc3cccc(Cl)c23)cc1` [Example 8, 3-((4-Carbamoylphenoxy)methyl)-4-chlorobenzo[b]thiophene-2-carboxylic acid], for which the “DSF huSTING (HAQ) ΔTm (° C.)” value on human STING (HAQ) (1 μM protein, compound at 100 μM) is 13.96 °C.

In the case of `CCOC(=O)c1sc2cccc(Cl)c2c1COc1ccc(C(N)=O)cc1` [Example 7, Ethyl 3-((4-carbamoylphenoxy)methyl)-4-chlorobenzo[b]thiophene-2-carboxylate], the pEC50 is 5.05 at huSTING (WT) [1] and 6.15 at huSTING (HAQ) (24 h, top concentration 50 μM). Moreover, the ΔTm at 100 µM on human STING (HAQ) was 0.26 °C.

For the molecule `CC(OC(=O)c1sc2cccc(Cl)c2c1COc1c(F)cc(C(N)=O)cc1F)OC(=O)C(C)C` (stereo not drawn) [Example 135, 1-(Isobutyryloxy)ethyl 3-((4-carbamoyl-2,6-difluorophenoxy)methyl)-4-chlorobenzo[b]thiophene-2-carboxylate], the values for the pEC50 at huSTING (WT) [1] and on huSTING (HAQ) (setting [3]) were 6.48 and 7.19, respectively.

Turning to `CCOC(=O)c1sc2cccc(C)c2c1COc1ccc(C(N)=O)cc1` [Example 77, Ethyl 3-((4-carbamoylphenoxy)methyl)-4-methylbenzo[b]thiophene-2-carboxylate], the pEC50 was 5.49 at huSTING (WT) [1] and 6.15 on huSTING (HAQ) (24 h, top concentration 50 μM).

On to `CCOC(=O)c1sc2c(O)ccc(Cl)c2c1COc1c(F)cc(C(N)=O)cc1F` [Example 147, Ethyl 3-((4-carbamoyl-2,6-difluorophenoxy)methyl)-4-chloro-7-hydroxybenzo[b]thiophene-2-carboxylate], for which the figures for the pEC50 at huSTING (WT) [1] and on huSTING (HAQ) (setting [3]) were 5.79 and 7.19, respectively.

As for `CCOC(=O)c1sc2cccc(Cl)c2c1COc1c(OC)cc(C(N)=O)cc1OC` [Example 41, Ethyl 3-((4-carbamoyl-2,6-dimethoxyphenoxy)methyl)-4-chlorobenzo[b]thiophene-2-carboxylate], the negative logarithm of the EC50 (pEC50) was 5.61 at huSTING (WT) [1] and 6.10 at huSTING (HAQ) (24 h, top concentration 50 μM).

As to `CN1CC(OC(=O)c2sc3cccc(Cl)c3c2COc2c(F)cc(C(N)=O)cc2F)C1` [Example 164, 1-Methylazetidin-3-yl 3-((4-carbamoyl-2,6-difluorophenoxy)methyl)-4-chlorobenzo[b]thiophene-2-carboxylate], the negative-log EC50 (pEC50) on huSTING (WT) [1] was 6.60; at huSTING (HAQ) (setting [3]) it was 7.57.

Consider `CCOC(=O)c1sc2cccc(OCC)c2c1COc1c(F)cc(C(N)=O)cc1F` [Example 94, Ethyl 3-((4-carbamoyl-2,6-difluorophenoxy)methyl)-4-ethoxybenzo[b]thiophene-2-carboxylate], for which the pEC50 on huSTING (WT) [1] was 5.77; on huSTING (HAQ) (setting [3]), 6.41.

Regarding `CCOC(=O)c1sc2cccc(Cl)c2c1COc1ccc(C(N)=O)c(OC)c1` [Example 97, Ethyl 3-((4-carbamoyl-3-methoxyphenoxy)methyl)-4-chlorobenzo[b]thiophene-2-carboxylate], the pEC50 on huSTING (WT) [1] is 5.01; on huSTING (HAQ) (setting [3]) it was 5.84.

As for `CCOC(=O)c1sc2cccc(F)c2c1COc1c(F)cc(C(N)=O)cc1F` [Example 2, Ethyl 3-((4-carbamoyl-2,6-difluorophenoxy)methyl)-4-fluorobenzo[b]thiophene-2-carboxylate], the negative-log EC50 (pEC50) at huSTING (WT) [1] was < 4.30; at huSTING (HAQ) (24 h, top concentration 50 μM), 5.68. Besides, on human STING (HAQ), the ΔTm at 100 µM amounted to 1.44 °C.

With `CCOC(=O)c1sc2cccc(Cl)c2c1COc1ccc(C(N)=O)cc1Cl` [Example 37, Ethyl 3-((4-carbamoyl-2-chlorophenoxy)methyl)-4-chlorobenzo[b]thiophene-2-carboxylate], the negative-log EC50 (pEC50) on huSTING (WT) [1] was 5.32; at huSTING (HAQ) (24 h, top concentration 50 μM), 5.42.

As for `CCOC(=O)c1sc2c(C#N)ccc(Cl)c2c1COc1c(F)cc(C(N)=O)cc1F` [Example 153, Ethyl 3-((4-carbamoyl-2,6-difluorophenoxy)methyl)-4-chloro-7-cyanobenzo[b]thiophene-2-carboxylate], the negative logarithm of the EC50 (pEC50) was 6.68 at huSTING (WT) [1] and 6.89 at huSTING (HAQ) (setting [3]).

Turning to `CCOC(=O)c1sc2cccc(Br)c2c1COc1c(F)cc(C(N)=O)cc1F` [Example 89, Ethyl 4-bromo-3-((4-carbamoyl-2,6-difluorophenoxy)methyl)benzo[b]thiophene-2-carboxylate], the pEC50 is 6.83 on huSTING (WT) [1] and 7.80 on huSTING (HAQ) (setting [3]).

For the molecule `CCOC(=O)c1sc2c(F)ccc(F)c2c1COc1ccc(C(N)=O)cc1` [Example 81, Ethyl 3-((4-carbamoylphenoxy)methyl)-4,7-difluorobenzo[b]thiophene-2-carboxylate], the negative logarithm of the EC50 (pEC50) is 4.68 on huSTING (WT) [1] and 5.55 on huSTING (HAQ) (24 h, top concentration 50 μM).

Consider `CCOC(=O)c1sc2cccc(Cl)c2c1COc1ccc(C(N)=O)c(F)c1F` [Example 66, Ethyl 3-((4-carbamoyl-2,3-difluorophenoxy)methyl)-4-chlorobenzo[b]thiophene-2-carboxylate], for which the negative logarithm of the EC50 (pEC50) at huSTING (WT) [1] is < 4.30; on huSTING (HAQ) (24 h, top concentration 50 μM) it was 5.10.

As to `CCOC(=O)c1sc2cccnc2c1COc1ccc(C(N)=O)cc1` [Example 23, Ethyl 3-((4-carbamoylphenoxy)methyl)thieno[3,2-b]pyridine-2-carboxylate], the negative logarithm of the EC50 (pEC50) was 4.77 on huSTING (WT) [1] and 5.12 on huSTING (HAQ) (24 h, top concentration 50 μM).

On to `CCOC(=O)c1sc2c(OC)ccc(Cl)c2c1COc1c(F)cc(C(N)=O)cc1F` [Example 149, Ethyl 3-((4-carbamoyl-2,6-difluorophenoxy)methyl)-4-chloro-7-methoxybenzo[b]thiophene-2-carboxylate], for which the pEC50 on huSTING (WT) [1] was 6.10; on huSTING (HAQ) (setting [3]), 6.21.

Turning to `CCOC(=O)c1sc2cccc(Cl)c2c1COc1c(C)cc(C(N)=O)cc1OC` [Example 72, Ethyl 3-((4-carbamoyl-2-methoxy-6-methylphenoxy)methyl)-4-chlorobenzo[b]thiophene-2-carboxylate], the negative-log EC50 (pEC50) was < 4.30 on huSTING (WT) [1] and 5.13 on huSTING (HAQ) (24 h, top concentration 50 μM).

Take `CCOC(=O)c1sc2cccc(Cl)c2c1COc1ccc(C(N)=O)cc1C#N` [Example 43, Ethyl 3-((4-carbamoyl-2-cyanophenoxy)methyl)-4-chlorobenzo[b]thiophene-2-carboxylate]: the pEC50 is 5.42 at huSTING (WT) [1] and 5.87 on huSTING (HAQ) (24 h, top concentration 50 μM).

In the case of `CC(OC(=O)OC(C)(C)C)OC(=O)c1sc2cccc(Cl)c2c1COc1c(F)cc(C(N)=O)cc1F` (stereo not drawn) [Example 129, 1-((tert-Butoxycarbonyl)oxy)ethyl 3-((4-carbamoyl-2,6-difluorophenoxy)methyl)-4-chlorobenzo[b]thiophene-2-carboxylate], the negative-log EC50 (pEC50) at huSTING (WT) [1] is 5.80; on huSTING (HAQ) (setting [3]), 6.92.

For the molecule `CCOC(=O)c1sc2cccc(Cl)c2c1COc1ccc(C(N)=O)c(F)c1` [Example 25, Ethyl 3-((4-carbamoyl-3-fluorophenoxy)methyl)-4-chlorobenzo[b]thiophene-2-carboxylate], the pEC50 on huSTING (WT) [1] is 5.85; at huSTING (HAQ) (24 h, top concentration 50 μM), 5.80.

In the case of `CCOC(=O)c1sc2cncc(Cl)c2c1COc1c(F)cc(C(N)=O)cc1F` [Example 170, Ethyl 3-((4-carbamoyl-2,6-difluorophenoxy)methyl)-4-chlorothieno[2,3-c]pyridine-2-carboxylate], the values for the negative-log EC50 (pEC50) on huSTING (WT) [1] and at huSTING (HAQ) (setting [3]) were 6.35 and 6.72, respectively.

With `Cc1ccc2sc(C(=O)OCOC(=O)C(C)(C)C)c(COc3ccc(C(N)=O)cc3)c2c1Cl` [Example 174, (Pivaloyloxy)methyl 3-((4-carbamoylphenoxy)methyl)-4-chloro-5-methylbenzo[b]thiophene-2-carboxylate], the negative-log EC50 (pEC50) was 4.59 on huSTING (WT) [1] and 5.33 at huSTING (HAQ) (setting [3]).

As to `CCOC(=O)c1sc2ncnc(OC)c2c1COc1c(F)cc(C(N)=O)cc1F` [Example 108], the values for the negative logarithm of the EC50 (pEC50) at huSTING (WT) [1] and at huSTING (HAQ) (setting [3]) were 6.47 and 6.46, respectively.

Turning to `COc1cccc2sc(C(=O)OC3CCCC3)c(COc3ccc(C(N)=O)cc3)c12` [Example 155, Cyclopentyl 3-((4-carbamoylphenoxy)methyl)-4-methoxybenzo[b]thiophene-2-carboxylate], the negative logarithm of the EC50 (pEC50) on huSTING (WT) [1] was 5.42; at huSTING (HAQ) (setting [3]), 6.64.

For orientation: pEC50 means −log10 of the EC50, conventionally taken in molar units. For orientation: ΔTm means the change in melting temperature against a reference sample.
